Columns and labels:
[1] = test system: primary mouse B cells; assay: B-cell response experiment (CD86 after anti-IgM); assay type: cell-based; details: 24 h treatment, 1–1000 nM
Experimental: Splenic cells from C57BL/6 mice were isolated by forcing spleen tissue through the mesh into PBS containing 2% fetal calf serum and 1 mM EDTA, and red blood cells were depleted by lysis buffer. […] Following a 24 h incubation, cells were stimulated with anti-IgM overnight (5 μg/mL, Sigma-Aldrich). […] Single-cell suspensions were analyzed by a flow cytometer (CytoFlex, Beckman Coulter).

[2] = molecular target: T1, BTK kinase domain (Homo sapiens, UniProt Q06187); assay: Labeling of recombinant BTK by intact protein LC/MS; assay type: binding; design: BTK kinase domain was expressed and purified as previously reported; made in house; details: BTK 10.7 µM, 20 µM compound, 1 hour
T1 sequence (Q06187 402-655 limits assumed): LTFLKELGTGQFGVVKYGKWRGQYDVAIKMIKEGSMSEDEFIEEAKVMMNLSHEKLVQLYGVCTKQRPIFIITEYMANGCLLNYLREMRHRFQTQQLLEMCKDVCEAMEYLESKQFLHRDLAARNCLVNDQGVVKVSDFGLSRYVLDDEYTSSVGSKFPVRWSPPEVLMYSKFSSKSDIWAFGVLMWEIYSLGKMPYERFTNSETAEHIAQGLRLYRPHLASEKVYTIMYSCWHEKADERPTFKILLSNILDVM

[3] = molecular target: T1, BTK kinase domain; assay: MS/MS site-of-labeling analysis of BTK tryptic peptides; assay type: binding; design: BTK kinase domain was expressed and purified as previously reported; made in house
Experimental: 100 μl of 5 μM Recombinant BTK kinase domain was incubated in 20 mM Tris with 50 μM of 1b or DMSO. The compounds were then removed by methanol-chloroform (400 μL MeOH+100 μL CHCl3+300 μL H2O) precipitation of the protein. The dry pellet was dissolved in 50 μl of 50 mM Tris pH 8 + 5% SDS and heated to 95 °C for 6 min. The concentration of the protein was estimated using BCA assay (using BSA as the standard). 2 μg each sample were diluted to 15 μl with Tris 50 mM pH 8 + 5% SDS, reduced with DTT (0.75 μl of 0.1 M in 5% SDS/Tris 50 mM pH 8, 45 min 65 °C), cooled to room temperature, then alkylated with 0.75 μl of 0.2 M iodoacetamide in water (30 min room temperature in the dark). The protein was then isolated and trypsinized on s-traps (Protifi) according to the manufacturer's instructions. Triplicates were prepared for each […]
ULC/MS grade solvents were used for all chromatographic steps. Each sample was loaded using split-less nano-Ultra Performance Liquid Chromatography (10 kpsi nanoAcquity; Waters, Milford, MA, USA). The mobile phase was: A) H2O + 0.1% formic acid and B) acetonitrile + 0.1% formic acid. Desalting of the samples was performed online using a reversed-phase Symmetry C18 trapping column (180 µm internal diameter, 20 mm length, 5 µm particle size; Waters). The peptides were then separated using a T3 HSS nano-column (75 µm internal diameter, 250 mm length, 1.8 µm particle size; Waters) at 0.35 µL/min. Peptides were eluted from the column into the mass spectrometer using the following gradient: 4% to 30%B in 155 min, 35% to 90%B in 5 min, maintained at 90% for 5 min and then back to initial conditions.
The nanoUPLC was coupled online through a nanoESI emitter (10 μm tip; New Objective; Woburn, MA, USA) to a quadrupole orbitrap mass spectrometer (Q Exactive HFX, Thermo Scientific) using a FlexIon nanospray apparatus (Proxeon).
Data was acquired in data dependent acquisition (DDA) mode, using a Top10 method. MS1 […]
maximum injection time was set to 60msec. MS2 resolution was set to 15,000, quadrupole isolation 1.7 m/z, AGC of 1e5, dynamic exclusion of 45 sec and maximum injection time of 60 […]
Analysis was done using MaxQuant 1.6.3.4. The sequence of BTK was used for the analysis. The digestion enzyme was set to Trypsin with a maximum number of missed cleavages of 0.
Carbamidomethyl and the modification by the molecule were included as variable modifications on cysteine. The “Re-quantify” option was enabled. Contaminants were included. Peptides were searched with a minimum peptide length of 7 and a maximum peptide mass of 4,500 Da. “Second peptides” were enabled and “Dependent peptides” were disabled. The option “Match between runs” was enabled with a Match time window of 0.7 min and an alignment window of 20 min. An FDR of 0.01 was used for Protein FDR, PSM FDR and XPSM FDR. The triplicate measured for each compound (or for DMSO-treated protein) was analyzed separately.
Following MaxQuant analysis, only fully cleaved peptides were quantified and cysteine-containing peptides that were not modified by either iodoacetamide or compound were ignored.
The intensity for each peptide was calculated as the average of the three triplicates. If the intensity was zero for one of the replicates the peptide was ignored. The intensities for the non-cysteine containing peptides were averaged for each data set and used to normalize the intensity of cysteine-containing peptides. Estimation of the extent of labeling of cysteine-containing peptides in the sequence was done by comparing the intensity of carbamidomethyl-modified peptides between the DMSO and molecule-treated samples. MS/MS spectra for the carbamidomethyl-modified and molecule modified peptides were extracted using Skyline. […]
The obtained

[4] = molecular target: BTK (Homo sapiens, UniProt Q06187); assay: BTK activity in Mino cells (autophosphorylation); assay type: cell-based; design: We incubated Mino B cells with probes containing different tags; endogenous in cells; host or cells: Mino cells; details: Mino cells, 1 h; 100 nM probes, 1 μM ibrutinib or Ibr-H
BTK, sequence (Q06187 whole entry): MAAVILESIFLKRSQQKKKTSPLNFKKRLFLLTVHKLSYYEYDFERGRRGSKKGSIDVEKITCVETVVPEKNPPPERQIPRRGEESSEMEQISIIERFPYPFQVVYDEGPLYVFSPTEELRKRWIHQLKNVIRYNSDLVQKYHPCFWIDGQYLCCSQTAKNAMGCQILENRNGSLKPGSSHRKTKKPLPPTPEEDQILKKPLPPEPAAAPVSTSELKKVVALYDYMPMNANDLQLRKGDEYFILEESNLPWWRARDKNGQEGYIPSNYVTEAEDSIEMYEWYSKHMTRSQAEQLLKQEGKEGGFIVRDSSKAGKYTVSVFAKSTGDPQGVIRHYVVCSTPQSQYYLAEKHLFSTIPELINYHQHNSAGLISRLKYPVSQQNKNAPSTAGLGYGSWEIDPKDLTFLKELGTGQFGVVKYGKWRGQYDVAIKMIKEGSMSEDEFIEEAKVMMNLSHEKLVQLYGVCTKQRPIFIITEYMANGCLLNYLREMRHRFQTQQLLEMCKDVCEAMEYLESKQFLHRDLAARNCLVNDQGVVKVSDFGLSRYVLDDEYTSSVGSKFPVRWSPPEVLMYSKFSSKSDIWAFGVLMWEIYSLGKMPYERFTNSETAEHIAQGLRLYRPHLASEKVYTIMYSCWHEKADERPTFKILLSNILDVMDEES
Experimental: The cells were harvested, and immunoblots of phospho-BTK, total-BTK, and β-actin were performed.
Cell pellets were washed with ice-cold PBS and lysed using RIPA buffer (Sigma, R0278). […] Samples containing 50 μg of total protein were prepared with 4× LDS sample buffer (NuPAGE, Thermo Fischer Scientific, NP0007) and were then resolved on a 4–20% Bis-Tris gel (GeneScript SurePAGE, M00657). […] The EZ-ECL kit (Biological Industries, 20-500-1000) was used to detect HRP activity.

- labeling of BTK (SPR sample preparation) [2]: 100%
- site of modification on BTK ([3]; LC/MS/MS of tryptic peptides): Cys481
- 1b/DMSO ratio after correction ([3]; iodoacetamide labeled peptide 457-466 LVQLYGVCTK): 0.891
- 1b/DMSO ratio after correction ([3]; iodoacetamide labeled peptide 467-487 QRPIFIITEYMANGCLLNYLR): 0.092
- 1b/DMSO ratio after correction ([3]; iodoacetamide labeled peptide 493-503 FQTQQLLEMCK): 0.469
- 1b/DMSO ratio after correction ([3]; iodoacetamide labeled peptide 504-515 DVCEAMEYLESK): 0.413
- 1b/DMSO ratio after correction ([3]; iodoacetamide labeled peptide 526-536 NCLVNDQGVVK): 0.724
- 1b/DMSO ratio after correction ([3]; iodoacetamide labeled peptide 626-637 VYTIMYSCWHEK): 0.735
- BTK autophosphorylation after anti-IgM [4]: BTK remained active after labeling
SMILES: C#CCCNC(=O)C(=C)CN1CCC[C@@H](n2nc(-c3ccc(Oc4ccccc4)cc3)c3c(N)ncnc32)C1 [1b]
- B cell activation (CD86 expression) after anti-IgM [1]: did not inhibit the activation of B cells

From article PMC8662641, “Site-Specific Labeling of Endogenous Proteins Using CoLDR Chemistry” (Journal of the American Chemical Society, 2021)
